{"source": "patent US9732059B2", "about": "“Methods of use of cyclic amide derivatives to treat schizophrenia” (Minerva Neurosciences, Inc., priority 2010, dated 2017)", "key": {"5-HT2A": {"target": "5-HT2A (Homo sapiens, UniProt P28223)", "sequence (P28223 whole entry, species assumed)": "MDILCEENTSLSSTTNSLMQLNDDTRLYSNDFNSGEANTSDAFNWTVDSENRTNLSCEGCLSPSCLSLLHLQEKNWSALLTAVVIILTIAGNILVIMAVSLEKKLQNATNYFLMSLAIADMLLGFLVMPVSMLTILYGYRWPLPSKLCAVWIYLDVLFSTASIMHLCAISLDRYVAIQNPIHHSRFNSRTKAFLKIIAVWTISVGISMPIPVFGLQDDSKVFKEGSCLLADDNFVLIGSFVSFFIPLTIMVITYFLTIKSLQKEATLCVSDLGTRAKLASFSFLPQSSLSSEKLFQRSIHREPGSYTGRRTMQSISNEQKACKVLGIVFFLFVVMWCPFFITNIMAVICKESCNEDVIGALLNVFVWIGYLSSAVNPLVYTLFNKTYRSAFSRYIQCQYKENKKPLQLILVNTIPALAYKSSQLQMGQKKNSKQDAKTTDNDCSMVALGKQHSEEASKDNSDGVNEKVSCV", "details": "known: dual 5-HT2A/sigma 2; cited from earlier work"}, "schizophrenic patients": {"test_system": "schizophrenic patients", "test": "Polysomnographic (PSG) sleep recording in a sub-group of patients", "assay_type": "in vivo, human", "from_the_text": "3. Exploratory: In a sub-group of patients, polysomnographic sleep continuity and sleep architecture parameters.\n2. Secondary efficacy variables: Same method for the PANSS total and sub-scores at three months of treatment, BACS, DAI-10, MADRS, HAMA, and PSQI on the Full Analysis Set (FAS). Last Observation Carried Forward (LOCF) procedure used for missing data imputation. Analysis of variance (ANOVA) for the Readiness for Discharge Questionnaire (RDQ) at 14 days. Wilcoxon rank sum test for CGI-S. Descriptive statistics and graphical presentation on changes from baseline on FAS. Efficacy analyses (ANCOVA) additionally performed on the Per Protocol Set. Supportive exploratory analysis on PANSS using longitudinal, likelihood-based, mixed-effect model on FAS without missing data imputation. On a subtest of patients, polysomnographic (PSG) recording parameters analyzed using descriptive statistics and ANCOVA on changes from baseline.\nPolysomnographic recordings took place in a sub-group of patients. Sleep was recorded from 11:00 pm to 7:00 am on D-1 after a habituation night (baseline condition) and on D14. Analyses regarding sleep continuity, stage distribution, and stage profile parameters were exploratory. The treatment differences on each of these sleep parameters were analyzed using D14 values with ANOVAs and ANCOVAs with country and treatment as main effects and baseline as covariate.\nAmong the 33 patients who had performed a PSG recording at visit lead-in day-1, 19 received placebo and 14 received the study treatment. Among these, […] experienced technical problem and/or insomnia during baseline and/or treatment night and were therefore excluded from the analysis. Finally, 20 patients were included in the analysis set of ANOVA and 19 patients were included in the analysis set of ANCOVA, and according to the SAP, only ANCOVA results were taken into account and are further discussed in the next sections."}, "[1]": {"test_system": "patients with DSM-IV schizophrenia", "test": "Phase 2 double-blind, randomized, placebo-controlled proof of concept study: efficacy scales (PANSS, CGI-S, DAI-10, PSQI, BACS, MADRS, HAMA)", "assay_type": "in vivo, human", "procedure": "A study was conducted using the compound of formula II, to examine the efficacy on schizophrenia and treatment of symptoms of schizophrenia. The study was a multi-center, inpatient and ambulatory, phase 2, double-blind, randomized, placebo-controlled proof of concept study of the compound of formula II in patients with DSM-IV schizophrenia. The study used 21 centers across three different countries.\n(§1) The study was designed to test the therapeutic efficacy of the compound of formula II on all dimensions of schizophrenic disease (E.g., positive, negative, and general symptoms, cognition, sleep, mood and anxiety). The study also examined the safety of the administered doses of the compound of formula II (also referred to herein as CYR-101), including heart repolarization (i.e., QT interval), weight change, adverse events, prolactin, and extrapyramidal symptoms).\nThe study was conducted for a time period of three months.\nThe objectives of the study included the following: • 1. Evaluate the efficacy versus placebo of CYR-101 on global PANSS score and sub-scores after one month (28 days+/− 2 days) of treatment • 2. […] Evaluate the efficacy versus placebo of CYR-101 as assessed by the CGI-S after one and three months of treatment • 4. Evaluate subjective efficacy in patients of CYR-101 versus placebo as assessed by the Drug Attitude Inventory-10 (DAI-10) after one and three months of treatment • 5. Evaluate subjective sleep quality as assessed by Pittsburgh Sleep Quality Index (PSQI) after three month of treatment • 6. Explore the efficacy versus placebo of CYR-101 on cognitive function as measured by BACS (Brief Assessment of Cognition in Schizophrenia) scale after one and three months of treatment • 7. Evaluate the efficacy versus placebo of CYR-101 in depressive symptoms as measure by the Montgomery-Asberg Depression Rating Scale (MADRS) total score after one month of treatment • 8. Evaluate the efficacy versus placebo of CYR-101 in anxiety as measured by the Hamilton Anxiety Scale (HAMA) total score after one month of treatment • 9. Assess cardio-vascular safety (particularly ventricular repolarisation as assessed by QT/QTc interval measurements) of CYR-101 compared with placebo • 10. Assess the global safety and tolerability of CYR-101 compared with placebo • 11. Determine the pharmacokinetics of CYR-101 in schizophrenic patients\n(§2) CYR-101 8 mg oral sustained release (SR) tablet, oral administration of 1, 2, or 4 tablets (8, 16 or 32 mg of CYR-101) was administered twice daily in fed condition. During the dose adjustment period, CYR-101 was administered orally, twice a day in the morning and in the evening, at the daily dose of 16 mg for two days, then titrated up every two days to 32 mg and 64 mg respectively. During the fixed-dose period, the optimal adjusted dose evaluated for each patient or the maximum daily dose of 64 mg of CYR-101 was administered. In one aspect of the study, the dosage of compound was titrated up to 32 mg b.i.d.\nDuring the lead-in period, oral administration of 1 placebo SR tablet was conducted twice a day for 3 days. During the dose adjustment and fixed-dose periods, oral administration of 1, 2, or 4 placebo SR tablets was used twice daily as performed for the test product.\nThe resulting data was analyzed one of three ways: 1.) Safety set; 2.) Full analysis set, with each patient having at least one PANSS evaluation after treatment initiation included in the efficacy analysis. The LOCF method is used; and 3.) Per protocol set, where for certain analyses, all patients having completed three months of treatment are included. ANCOVA followed by a contrast analysis at each time point were applied and in some cases, a non-parametric Wilcoxon test was used.\n1. Primary: PANSS total score and sub-scores, after one month of treatment\n2. […]"}, "[2]": {"test_system": "patients with DSM-IV schizophrenia", "test": "Phase 2 clinical study: safety (extrapyramidal symptoms, adverse events, QT interval)", "assay_type": "in vivo, human", "procedure": "as §1, §2\n4. Safety: 12-lead ECG, adverse event (AE) recording, vital signs, physical examination, weight and waist circumference, safety lab tests, evaluation of extra-pyramidal symptoms (measured by Simpson and Angus scale), and prolactin levels.\n3. Safety: Descriptive statistics on the safety set for extent of exposure, adverse events recording, safety lab tests, 12-lead ECG parameters, vital signs, and physical examination, weight and waist circumference, extra-pyramidal symptoms, prolactin levels."}, "dopamine": {"test_system": "dopamine", "details": "known; cited from earlier work"}, "sigma 2 receptor": {"target": "sigma 2 receptor (Homo sapiens, UniProt Q5BJF2)", "sequence (Q5BJF2 whole entry, species assumed)": "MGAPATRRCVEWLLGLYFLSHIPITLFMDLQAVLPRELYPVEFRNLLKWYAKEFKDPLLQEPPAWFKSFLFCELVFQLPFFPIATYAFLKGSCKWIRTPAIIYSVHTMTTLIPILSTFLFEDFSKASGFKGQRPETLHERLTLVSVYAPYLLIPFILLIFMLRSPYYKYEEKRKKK", "details": "cited from earlier work"}, "[3]": {"details": "D14, ANCOVA contrast, not statistically significant"}, "[4]": {"details": "D14, ANCOVA, no significant treatment effect"}, "[5]": {"details": "D14, not statistically significant"}}, "note": "Entries after “also recorded” stand apart in the source; their conditions may differ.", "data": [{"smiles": "O=C(CN1CCC(CN2Cc3ccccc3C2=O)CC1)c1ccc(F)cc1", "note": "[CYR-101, 2-[[1-[2-(4-Fluorophenyl)-2-oxoethyl]piperidin-4-yl]methyl]isoindolin-1-one]", "values": [{"measurement": "Mode of action at 5-HT2A", "setting": "5-HT2A", "result": "antagonist"}, {"measurement": "Decrease of sleep efficiency index (SEI) compared to placebo", "setting": "schizophrenic patients; [3]", "result": 2.4, "unit": "%"}, {"measurement": "Decrease of total sleep time (TST) compared to placebo", "setting": "schizophrenic patients; [3]", "result": 13.7, "unit": "min"}, {"measurement": "Increase of duration of wake after sleep onset (WASO) compared to placebo", "setting": "schizophrenic patients; [3]", "result": 26.6, "unit": "min"}, {"measurement": "Latency to persistent sleep", "setting": "schizophrenic patients; [4]", "result": "trend of improvement"}, {"measurement": "Sleep onset latency", "setting": "schizophrenic patients; [4]", "result": "trend of improvement"}, {"measurement": "REM sleep latency contrast", "setting": "schizophrenic patients; D14, non significant", "result": "appeared later"}, {"measurement": "SWS latency contrast", "setting": "schizophrenic patients; D14, non significant", "result": "appeared sooner"}, {"measurement": "Decrease of REM sleep in SPT2 and in SPT3", "setting": "schizophrenic patients; [5]", "result": 3.03, "unit": "%"}, {"measurement": "Increase of REM sleep in the first third of SPT (REM_SPT1)", "setting": "schizophrenic patients; [5]", "result": 1.4, "unit": "%"}, {"measurement": "Slow Wave Sleep (SWS) compared to placebo", "setting": "schizophrenic patients; [5]", "result": "increased"}, {"measurement": "Stage 1 (ST1) compared to placebo", "setting": "schizophrenic patients; [5]", "result": "decreased"}, {"measurement": "Stage 2 (ST2 in min) compared to placebo", "setting": "schizophrenic patients; [5]", "result": "decreased"}, {"measurement": "Total Time Awake (TTA) compared to placebo", "setting": "schizophrenic patients; [5]", "result": "increased"}, {"measurement": "nonREM sleep (NREM) compared to placebo", "setting": "schizophrenic patients; [5]", "result": "increased"}, {"measurement": "Decrease of SWS during the last third of SPT (SWS-SPT3) compared to placebo", "setting": "schizophrenic patients; D14, p<0.05", "result": 22.1, "unit": "%"}, {"measurement": "Increase of SWS in the first third of SPT (SWS-SPT1) compared to placebo", "setting": "schizophrenic patients; D14, p<0.05", "result": 23.6, "unit": "%"}, {"measurement": "REM sleep (REM) compared to placebo", "setting": "schizophrenic patients; D14, significant only for REM-TST (p<0.05)", "result": "decreased"}, {"measurement": "PANSS general psychopathology sub-score, treatment difference vs placebo", "setting": "[1]; D28, FAS", "result": "no treatment difference"}, {"measurement": "PANSS positive sub-score, treatment difference vs placebo", "setting": "[1]; D28, FAS", "result": "no treatment difference"}, {"measurement": "PANSS total score, change from baseline, treatment difference vs placebo", "setting": "[1]; D28, FAS", "result": "no treatment difference"}, {"measurement": "PANSS negative sub-score decrease", "setting": "[1]; D28, FAS, p<0.01", "result": "−1.9"}, {"measurement": "PANSS general psychopathology sub-score, treatment difference vs placebo", "setting": "[1]; D28, PPC", "result": "no treatment difference"}, {"measurement": "PANSS positive sub-score, treatment difference vs placebo", "setting": "[1]; D28, PPC", "result": "no treatment difference"}, {"measurement": "PANSS total score, treatment difference vs placebo", "setting": "[1]; D28, PPC", "result": "no treatment difference"}, {"measurement": "PANSS negative sub-score decrease", "setting": "[1]; D28, PPC, p<0.0010", "result": "−4.7"}, {"measurement": "PANSS general psychopathology sub-score, treatment difference vs placebo", "setting": "[1]; D84, FAS", "result": "no significant treatment difference"}, {"measurement": "PANSS positive sub-score, treatment difference vs placebo", "setting": "[1]; D84, FAS", "result": "no significant treatment difference"}, {"measurement": "PANSS total score, change from baseline, treatment difference vs placebo", "setting": "[1]; D84, FAS", "result": "no significant treatment difference"}, {"measurement": "PANSS negative sub-score point estimate decrease", "setting": "[1]; D84, FAS, p<0.01", "result": "−2.3"}, {"measurement": "PANSS total score vs placebo", "setting": "[1]; D84, PPC, obvious switch on D56", "result": "favorable trend of CYR-101 over placebo"}, {"measurement": "PANSS negative sub-score improvement", "setting": "[1]; D84, PPC, p<0.001, treatment difference vs placebo p=0.0581", "result": "−5.8"}, {"measurement": "PANSS positive sub-score vs placebo", "setting": "[1]; D84, PPC, switch between D56 and D70", "result": "favorable trend of CYR-101 over placebo"}, {"measurement": "PANSS general psychopathology sub-score vs placebo", "setting": "[1]; D84, PPC, switch on D70", "result": "favorable trend of CYR-101 over placebo"}, {"measurement": "Cognitive performances assessed by BACS vs placebo", "setting": "[1]; FAS", "result": "no differences between the placebo group and the CYR-101 group, except for the Token motor task"}, {"measurement": "MADRS Total change score, difference vs placebo", "setting": "[1]; FAS and PPC, D28 and D84, reduction in both groups", "result": "not statistically significant"}, {"measurement": "CGI-S score, difference between CYR-101 and placebo", "setting": "[1]; FAS, D28 and D84", "result": "no significant difference"}, {"measurement": "HAMA total score change from baseline", "setting": "[1]; FAS, D28 and D84, non statistically significant", "result": "slight HAMA total score reduction"}, {"measurement": "HAMA total score reduction", "setting": "[1]; PPC, D28, p=0.2920", "result": "−1.0"}, {"measurement": "BACS Token motor task, list learning task, verbal fluency vs placebo", "setting": "[1]; PPC, D84, descriptive data, not statistically significant", "result": "slight difference in favor of CYR-101 group; also recorded: slight difference in favour of CYR-101 group"}, {"measurement": "HAMA total score reduction", "setting": "[1]; PPC, D84, p=0.0642", "result": "−2.9"}, {"measurement": "CGI-S mean difference score", "setting": "[1]; PPC, from D56 until D84", "result": "non significant but an interesting switch in favor of CYR-101"}, {"measurement": "Improvement of negative symptoms, onset", "setting": "[1]; course of treatment", "result": "observed immediately"}, {"measurement": "Improvement of positive symptoms, onset", "setting": "[1]; course of treatment", "result": "did not improve until after the first four weeks of treatment"}, {"measurement": "Duration of improvement in both positive and negative symptoms", "setting": "[1]; in vivo", "result": "continued for more than twelve weeks"}, {"measurement": "Effect on cognition in schizophrenic patients", "setting": "[1]; in vivo", "result": "positive effect on cognition"}, {"measurement": "DAI-10 total score change from baseline, difference between groups", "setting": "[1]; to D28 and D84, FAS and PPC", "result": "no statistically significant difference"}, {"measurement": "Increase in the QT interval", "setting": "[2]; doses up to 32 mg b.i.d., stable over time, limits e.g. 10-15 milliseconds or less", "result": "did not cross clinically acceptable limits"}, {"measurement": "Emergence or worsening of extrapyramidal symptoms, CYR-101 vs placebo", "setting": "[2]; human, in vivo", "result": "no significant difference"}, {"measurement": "Number of SAE in the active treatment group", "setting": "[2]; unlikely related to CYR-101 based on the patient history", "result": "one"}, {"measurement": "Dopamine binding properties", "setting": "dopamine", "result": "devoid of dopamine binding properties"}, {"measurement": "Receptor binding selectivity", "setting": "sigma 2 receptor", "result": "sigma 2-selective receptor binding"}]}]}
